This is an account of results in ChEMBL document CHEMBL1201862, “PubChem BioAssay data set” (2004).

SMILES strings stand for the structures. The source made the active and inactive calls.

For assay [1], the target named is T1, RNA-binding protein pos-1 (Caenorhabditis elegans, UniProt G5EF15).
T1 sequence (G5EF15 whole entry): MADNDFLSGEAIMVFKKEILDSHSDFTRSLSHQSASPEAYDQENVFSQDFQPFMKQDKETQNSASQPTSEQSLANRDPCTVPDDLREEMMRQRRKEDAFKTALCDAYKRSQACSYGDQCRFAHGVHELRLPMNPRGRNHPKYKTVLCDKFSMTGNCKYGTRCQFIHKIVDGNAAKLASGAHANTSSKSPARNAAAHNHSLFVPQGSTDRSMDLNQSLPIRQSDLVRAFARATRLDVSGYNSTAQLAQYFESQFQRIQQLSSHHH
In words: disruptors of C. elegans POS-1 RNA interaction – biochemical, fluorescence polarization, dose response (AID 1964).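 Also: purified POS-1 fused to maltose binding protein made in E. coli; potency of compounds blocking POS-1 binding to fluorescent RNA.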 For orientation: Polarisation of emitted light reports the rotation of a fluorescent probe.

The next assay addresses Troponin, cardiac muscle (Homo sapiens, UniProt P19429+P45379+P63316). As to the kind of experiment: Fluorescence-based biochemical high throughput dose response assay for activators of the calcium sensitivity of cardiac Regulated Thin Filaments (RTF). [Related pubchem assays (depositor defined):AID493008, AID493018, AID504382, AID504383]. Format: protein-complex assay.
The target in assay [2] is T2, Tyrosine-protein phosphatase non-receptor type 22 (Homo sapiens, UniProt Q9Y2R2).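 Also: confirmatory dose-response retesting of primary uHTS hits against LYP; potency is for inhibition of phosphatase activity.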
T2 sequence (Q9Y2R2 whole entry): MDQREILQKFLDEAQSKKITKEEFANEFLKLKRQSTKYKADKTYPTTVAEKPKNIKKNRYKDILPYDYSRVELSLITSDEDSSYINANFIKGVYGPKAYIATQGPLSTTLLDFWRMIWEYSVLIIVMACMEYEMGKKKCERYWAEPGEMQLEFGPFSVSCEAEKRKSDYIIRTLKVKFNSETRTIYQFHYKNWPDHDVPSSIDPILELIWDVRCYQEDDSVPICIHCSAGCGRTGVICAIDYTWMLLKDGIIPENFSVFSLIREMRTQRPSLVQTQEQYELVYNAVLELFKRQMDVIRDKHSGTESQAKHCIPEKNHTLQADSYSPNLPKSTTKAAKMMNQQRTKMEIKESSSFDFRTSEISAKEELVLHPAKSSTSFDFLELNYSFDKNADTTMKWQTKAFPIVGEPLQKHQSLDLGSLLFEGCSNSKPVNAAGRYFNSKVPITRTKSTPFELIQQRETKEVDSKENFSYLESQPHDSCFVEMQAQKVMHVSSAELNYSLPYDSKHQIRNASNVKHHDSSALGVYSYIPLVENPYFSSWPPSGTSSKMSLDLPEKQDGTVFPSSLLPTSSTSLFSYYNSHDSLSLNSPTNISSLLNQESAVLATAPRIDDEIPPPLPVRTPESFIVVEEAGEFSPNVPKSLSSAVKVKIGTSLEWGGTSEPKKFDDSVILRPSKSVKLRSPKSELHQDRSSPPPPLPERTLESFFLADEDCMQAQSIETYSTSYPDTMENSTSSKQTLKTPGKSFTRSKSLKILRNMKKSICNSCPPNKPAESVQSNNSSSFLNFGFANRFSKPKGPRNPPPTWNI
Format: functional.

The target of assay [3] is T3, Type-1 angiotensin II receptor (Homo sapiens, UniProt P30556).
T3 sequence (P30556 whole entry): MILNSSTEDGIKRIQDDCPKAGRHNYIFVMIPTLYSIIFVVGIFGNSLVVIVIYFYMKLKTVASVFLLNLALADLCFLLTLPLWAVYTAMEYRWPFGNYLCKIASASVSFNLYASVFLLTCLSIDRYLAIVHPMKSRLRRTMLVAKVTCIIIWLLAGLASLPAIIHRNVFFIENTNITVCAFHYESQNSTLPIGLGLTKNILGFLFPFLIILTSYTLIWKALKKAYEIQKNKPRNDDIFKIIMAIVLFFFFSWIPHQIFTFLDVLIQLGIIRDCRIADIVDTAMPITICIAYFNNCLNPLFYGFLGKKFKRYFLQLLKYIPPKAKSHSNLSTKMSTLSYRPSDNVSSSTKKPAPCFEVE
In words: antagonism of angiotensin II type 1 receptor – cell-based, uHTS hits, selectivity assay for APJ receptor antagonist project, dose response (AID 463214).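 Also: antagonist potency against angiotensin II stimulated AT1 response.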 Format: functional.

For `CCN(CC)CCN1C(=O)c2cccc3cc(N)cc(c23)C1=O`, the EC50 was 6.62 µM (active) in assay [1] and 21.3 µM (inactive) on Troponin, cardiac muscle. Turning to `O=C(O)c1cccc(-n2cccc2/C=C2/NC(=O)N(c3ccc(Cl)cc3)C2=O)c1`, in assay [2], the half-maximal inhibitory concentration (IC50) is 2.44 µM (active). Regarding `C=C1C(=O)O[C@@H]2C[C@@H](C)[C@@H]3C=CC(=O)[C@@]3(C)[C@@H](OC(=O)CC(=O)O[C@H]3[C@@H]4C(=C)C(=O)O[C@@H]4C[C@@H](C)[C@@H]4C=CC(=O)[C@]43C)[C@H]12`, the IC50 in assay [3] is 6.05 µM (active).

A word on the EC50: it is the midpoint of the concentration-response curve. In general, IC50 refers to the midpoint of a concentration-inhibition curve.
